Like-named read-outs stand apart in the source and are kept apart here.
Molecular target: T1, mAChR M4 (Homo sapiens, UniProt P08173)
T1 construct: expressed in transfected cells; host or cells: CHO-K1 cells stably transfected with M4 cDNA and chimeric G-protein Gqi5
T1 sequence (P08173 1-479): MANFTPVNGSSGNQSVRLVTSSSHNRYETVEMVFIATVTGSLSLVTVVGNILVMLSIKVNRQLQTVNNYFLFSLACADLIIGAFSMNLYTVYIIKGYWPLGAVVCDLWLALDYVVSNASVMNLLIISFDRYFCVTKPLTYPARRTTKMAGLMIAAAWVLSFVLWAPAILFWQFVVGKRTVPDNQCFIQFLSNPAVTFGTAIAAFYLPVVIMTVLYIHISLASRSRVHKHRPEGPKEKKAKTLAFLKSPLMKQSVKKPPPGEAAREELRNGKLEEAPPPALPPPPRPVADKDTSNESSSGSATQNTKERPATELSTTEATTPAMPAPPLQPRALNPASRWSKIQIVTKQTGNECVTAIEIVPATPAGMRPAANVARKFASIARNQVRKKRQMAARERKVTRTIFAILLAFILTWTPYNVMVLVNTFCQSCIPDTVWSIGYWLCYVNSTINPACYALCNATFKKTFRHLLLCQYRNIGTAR
Test: mAChR M4 cell-based functional assay (calcium mobilization, potentiation of EC20 acetylcholine response)

[1] = mAChR M4 cell-based functional assay, >10,000 estimated for low potency compounds without plateau, read-out: EC50

Row | Structure (SMILES) | Emax at 30 µM (% ACh maximum at 30 μM) | EC50 [1] | EC50 (EC50 (nM)) | Emax (%)* (% ACh maximum at 30 μM)
1 | COc1ccc([C@@H]2C[C@H]2NC(=O)c2sc3nnc(C)c(C)c3c2N)cc1 (single isomer, unassigned) [Example B32] | 73% | 300 nM | – | –
2 | Cc1nnc2sc(C(=O)NC3CN(C(=O)Nc4ccccc4F)C3)c(N)c2c1C [Example B338] | 62% | 44 nM | – | –
3 | Cc1nnc2sc(C(=O)N3CC(NCc4ccncc4)C3)c(N)c2c1C [Example B60] | 41% | > 10000 nM | – | –
4 | Cc1nnc2sc(C(=O)NCc3ccc(-c4cccnc4)cc3)c(N)c2c1C [Example B464] | 63% | 11 nM | – | –
5 | Cc1nnc2sc(C(=O)NC3CCN(c4cccc(Cl)c4)C3)c(N)c2c1C (stereo not shown) [Example B268] | 68% | 180 nM | – | –
6 | Cc1nnc2sc(C(=O)NCCNC(=O)c3ccccc3)c(N)c2c1C [Example B347] | 59% | 1500 nM | – | –
7 | COc1cc(CNC(=O)c2sc3nnc(C)c(C)c3c2N)ccn1 [Example B289] | 69% | 230 nM | – | –
8 | Cc1nnc2sc(C(=O)NCCN3CCOCC3)c(N)c2c1C [Example B28] | 54% | > 10000 nM | – | –
9 | Cc1nnc2sc(C(=O)N3C[C@@H]4C[C@@H]3CN4C(=O)Oc3ccccc3)c(N)c2c1C [Example B270] | 62% | > 10000 nM | – | –
10 | Cc1nnc2sc(C(=O)NCc3ccc(-c4cncc(F)c4)cc3)c(N)c2c1C [Example B487] | 71% | 37 nM | – | –
11 | Cc1nnc2sc(C(=O)N3CC(F)(c4cccnc4)C3)c(N)c2c1C [Example B308] | 42% | 850 nM | – | –
12 | COc1ncc(-c2ccc(CNC(=O)c3sc4nnc(C)c(C)c4c3N)cc2)cn1 [Example B485] | 58% | 48 nM | – | –
13 | Cc1nnc2sc(C(=O)NCc3ccc(-n4cccn4)cc3)c(N)c2c1C [Example B506] | 70% | 150 nM | – | –
14 | Cc1nnc2sc(C(=O)NC3CN(C(=O)OCCN(C)C)C3)c(N)c2c1C [Example B341] | 74% | 120 nM | – | –
15 | Cc1nnc2sc(C(=O)NCc3ccc(-c4ccc5c(c4)OCO5)cc3)c(N)c2c1C [Example B501] | 44% | 990 nM | – | –
16 | Cc1nnc2sc(C(=O)NC3CN(C(=O)Cc4cccs4)C3)c(N)c2c1C [Example B154] | 88% | 70 nM | – | –
17 | Cc1nnc2sc(C(=O)NCc3ccc(CN4CCOCC4)cc3)c(N)c2c1C [Example B441] | 79% | 80 nM | – | –
18 | Nc1c(C(=O)NCc2cccc(F)c2F)sc2nnc3c(c12)CCCC3 [Example B57] | 47% | 100 nM | – | –
19 | Cc1nnc2sc(C(=O)N3CCC4(CN(C(=O)OC(C)(C)C)C4)C3)c(N)c2c1C [Example B194] | 30% | 4700 nM | – | –
20 | Cc1nnc2sc(C(=O)N3CC4CN(C(=O)Oc5ccccc5)CC4C3)c(N)c2c1C (stereo not shown) [Example B336] | 49% | 980 nM | – | –
21 | Cc1nnc2sc(C(=O)NC3CN(C(=O)Oc4ccc(C(F)(F)F)cc4)C3)c(N)c2c1C [Example B356] | 61% | 25 nM | – | –

Row | Structure (SMILES) | Emax at 30 µM (% ACh maximum at 30 μM) | EC50 [1] | EC50 (EC50 (nM)) | Emax (%)* (% ACh maximum at 30 μM)
22 | Cc1nnc2sc(C(=O)N3CC4CN(c5cccc(F)n5)CC4C3)c(N)c2c1C (stereo not shown) [Example B442] | 66% | 310 nM | – | –
23 | CS(=O)(=O)c1ccc(CNC(=O)c2sc3nnc4c(c3c2N)CCCC4)cc1 [Example B58] | 64% | 240 nM | – | –
24 | Cc1nnc2sc(C(=O)NC3CN(C(=O)Oc4cccc(N=[N+]=[N-])c4)C3)c(N)c2c1C [Example B424] | 68% | 7.9 nM | – | –
25 | COc1cncc(-c2ccc(CNC(=O)c3sc4nnc(C)c(C)c4c3N)cc2)c1 [Example B488] | 76% | 49 nM | – | –
26 | Cc1nnc2sc(C(=O)NC3CN(C(=O)Nc4ccc(F)cc4)C3)c(N)c2c1C [Example B351] | 57% | 32 nM | – | –
27 | CCOc1ccc(CNC(=O)c2sc3nnc(C)c(C)c3c2N)cc1 [Example B198] | 63% | 25 nM | – | –
28 | Cc1nnc2sc(C(=O)NC3CCN(c4cccnc4)C3)c(N)c2c1C (stereo not shown) [Example B261] | 53% | 620 nM | – | –
29 | Cc1nnc2sc(C(=O)NCCN(C)C(=O)c3ccccc3)c(N)c2c1C [Example B369] | 25% | > 10000 nM | – | –
30 | Cc1nnc2sc(C(=O)NCc3ccc([S+]([O-])C(F)F)cc3)c(N)c2c1C (stereo not shown) [Example B478] | 71% | 23 nM | – | –
31 | Cc1cccc(OC(=O)N2CC(NC(=O)c3sc4nnc(C)c(C)c4c3N)C2)c1 [Example B365] | 58% | 7.9 nM | – | –
32 | Cc1cccc(S(=O)(=O)N2CC(NC(=O)c3sc4nnc(C)c(C)c4c3N)C2)c1 [Example B138] | 65% | 57 nM | – | –
33 | Nc1c(C(=O)NCc2ccc(S(=O)(=O)C(F)F)cc2)sc2nnc3c(c12)CCCC3 [Example B427] | 39% | 59 nM | – | –
34 | Cc1nnc2sc(C(=O)N3CCC(NC(=O)c4cccc(F)c4)C3)c(N)c2c1C (stereo not shown) [Example B216] | 62% | > 10000 nM | – | –
35 | Cc1nnc2sc(C(=O)N3CC4CN(C(=O)C5CCC5)CC4C3)c(N)c2c1C (stereo not shown) [Example B385] | 55% | 2600 nM | – | –
36 | Cc1nnc2sc(C(=O)NC3CCN(c4ccccc4C(F)(F)F)C3)c(N)c2c1C (stereo not shown) [Example B284] | 71% | 150 nM | – | –
37 | Cc1nnc2sc(C(=O)NC3CN(S(=O)(=O)c4ccccc4)C3)c(N)c2c1C [Example B159] | 56% | 81 nM | – | –
38 | Cc1nnc2sc(C(=O)NC3CCN(C(=O)C4CCC4)C3)c(N)c2c1C (stereo not shown) [Example B239] | 84% | 1200 nM | – | –
39 | COC1(c2ccccc2)CN(C(=O)c2sc3nnc(C)c(C)c3c2N)C1 [Example B170] | 60% | 470 nM | – | –
40 | COc1ccc(C(=O)N2CC(NC(=O)c3sc4nnc(C)c(C)c4c3N)C2)cc1 [Example B400] | 63% | 52 nM | – | –
41 | Cc1nnc2sc(C(=O)NCc3ccc(S(=O)(=O)C(C)C)cc3)c(N)c2c1C [Example B48] | 77% | – | 48 nM | –
42 | Cc1nnc2sc(C(=O)NCCN(C)S(=O)(=O)c3ccc(F)cc3)c(N)c2c1C [Example B358] | 49% | 4500 nM | – | –

Row | Structure (SMILES) | Emax at 30 µM (% ACh maximum at 30 μM) | EC50 [1] | EC50 (EC50 (nM)) | Emax (%)* (% ACh maximum at 30 μM)
43 | Cc1nnc2sc(C(=O)NC3C4CC5CC(C4)CC3C5)c(N)c2c1C (stereo not shown) [Example B281] | 62% | 2000 nM | – | –
44 | Cc1nnc2sc(C(=O)NCc3ccc(-c4cccs4)cc3)c(N)c2c1C [Example B460] | 76% | 28 nM | – | –
45 | Cc1nnc2sc(C(=O)NCc3ncccn3)c(N)c2c1C [Example B3] | 46% | > 10000 nM | – | –
46 | Cc1nnc2sc(C(=O)NCc3cccc(S(C)(=O)=O)c3)c(N)c2c1C [Example B44] | 75% | – | 420 nM | –
47 | Cc1nnc2sc(C(=O)NC3CN(C(=O)c4ccc(F)c(F)c4)C3)c(N)c2c1C [Example B131] | 76% | 150 nM | – | –
48 | Cc1nnc2sc(C(=O)NCc3ccc(C(F)(F)F)nc3)c(N)c2c1C [Example B443] | 69% | 120 nM | – | –
49 | Cc1nnc2sc(C(=O)NCc3ccc(-n4cncn4)cc3)c(N)c2c1C [Example B511] | 67% | 78 nM | – | –
50 | Cc1nnc2sc(C(=O)NCc3ccc([S+]([O-])C(F)F)cc3)c(N)c2c1C (single isomer, unassigned) [Example B510] | – | 500 nM | – | 70%
51 | CCCCCC(=O)N1CC(NC(=O)c2sc3nnc(C)c(C)c3c2N)C1 [Example B152] | 85% | 110 nM | – | –
52 | Cc1nnc2sc(C(=O)N3CCC(NC(=O)c4ccccn4)C3)c(N)c2c1C (stereo not shown) [Example B240] | 53% | > 10000 nM | – | –
53 | COC1(CCC2OCCCO2)CN(C(=O)c2sc3nnc(C)c(C)c3c2N)C1 [Example B298] | 43% | 4300 nM | – | –
54 | Cc1ccc(S(=O)(=O)N2CC(NC(=O)c3sc4nnc(C)c(C)c4c3N)C2)s1 [Example B98] | 66% | 63 nM | – | –
55 | Cc1nnc2sc(C(=O)N3CC(NC(=O)OCc4ccccc4)C3)c(N)c2c1C [Example B190] | 53% | 560 nM | – | –
56 | Cc1nnc2sc(C(=O)NC3CCN(c4ccccc4OC(F)(F)F)C3)c(N)c2c1C (stereo not shown) [Example B282] | 80% | 220 nM | – | –
57 | Cc1nnc2sc(C(=O)NCc3ccco3)c(N)c2c1C [Example B102] | 81% | 1300 nM | – | –
58 | Cc1nnc2sc(C(=O)N3CC(S(=O)(=O)c4ccc(F)c(F)c4)C3)c(N)c2c1C [Example B415] | 44% | 1300 nM | – | –
59 | Cc1nnc2sc(C(=O)NCc3ccc4c(c3)OCO4)c(N)c2c1C [Example B12] | 90% | 93 nM | – | –
60 | Cc1nnc2sc(C(=O)N3CC(Cc4ccccc4)C3)c(N)c2c1C [Example B275] | 65% | 200 nM | – | –
61 | Cc1nnc2sc(C(=O)NC3CN(c4ncc(Br)cn4)C3)c(N)c2c1C [Example B429] | 67% | 23 nM | – | –
62 | COc1ccc(S(=O)(=O)C2CN(C(=O)c3sc4nnc(C)c(C)c4c3N)C2)cc1 [Example B417] | 46% | 750 nM | – | –
